Measurements reported in ChEMBL document CHEMBL1201862, “PubChem BioAssay data set” (2004).
Counter-ions that a name gives are not always drawn. Calls of active or inactive are those of the source.

How the values were obtained:
[1] = target: T1, DNA repair and recombination protein RAD54-like (Homo sapiens, UniProt Q92698); assay: inhibitors of human RAD54 branch migration, confirmation, biochemical, fluorescence, cherry-picked samples, dose series (AID 651657); type: functional
T1 sequence (Q92698 whole entry): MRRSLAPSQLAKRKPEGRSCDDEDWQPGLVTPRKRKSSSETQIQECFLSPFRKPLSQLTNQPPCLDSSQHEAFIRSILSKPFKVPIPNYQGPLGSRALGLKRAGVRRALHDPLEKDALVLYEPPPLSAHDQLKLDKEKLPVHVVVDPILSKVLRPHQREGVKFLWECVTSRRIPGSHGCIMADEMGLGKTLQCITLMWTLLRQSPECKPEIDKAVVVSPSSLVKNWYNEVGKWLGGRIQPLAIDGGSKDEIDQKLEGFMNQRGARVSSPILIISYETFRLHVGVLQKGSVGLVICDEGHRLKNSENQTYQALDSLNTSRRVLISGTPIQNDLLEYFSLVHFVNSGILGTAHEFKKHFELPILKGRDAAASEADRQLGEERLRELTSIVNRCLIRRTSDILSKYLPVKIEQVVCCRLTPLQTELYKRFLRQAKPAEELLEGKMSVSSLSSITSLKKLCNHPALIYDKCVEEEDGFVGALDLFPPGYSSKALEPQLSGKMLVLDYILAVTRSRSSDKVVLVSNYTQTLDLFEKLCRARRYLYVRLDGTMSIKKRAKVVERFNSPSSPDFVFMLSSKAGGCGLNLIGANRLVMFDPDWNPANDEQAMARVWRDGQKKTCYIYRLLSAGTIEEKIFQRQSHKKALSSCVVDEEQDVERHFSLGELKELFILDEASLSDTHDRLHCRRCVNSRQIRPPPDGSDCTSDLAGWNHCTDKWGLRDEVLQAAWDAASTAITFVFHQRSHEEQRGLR

[2] = cytotoxicity toward NIH3T3 fibroblasts, dose response, counter-screen, cell-based, ATP luminescence, mouse fibroblasts (AID 2010); type: functional;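 note: cells exposed to compound for about 90 hours before reading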
[3] = system: Streptococcus sp. 'group A'; assay: growth inhibition of control SK(-) GAS strain, dose response, counter-screen for streptokinase expression inhibitor project, luminescence, kanamycin, BacTiterGlo, confirmation (AID 1900); type: functional, organism-based
Beta-galactosidase = Beta-galactosidase (Escherichia coli, UniProt Q8VNN2); assay: PubChem AID 485352; type: functional
Sequence of Beta-galactosidase (Q8VNN2 whole entry): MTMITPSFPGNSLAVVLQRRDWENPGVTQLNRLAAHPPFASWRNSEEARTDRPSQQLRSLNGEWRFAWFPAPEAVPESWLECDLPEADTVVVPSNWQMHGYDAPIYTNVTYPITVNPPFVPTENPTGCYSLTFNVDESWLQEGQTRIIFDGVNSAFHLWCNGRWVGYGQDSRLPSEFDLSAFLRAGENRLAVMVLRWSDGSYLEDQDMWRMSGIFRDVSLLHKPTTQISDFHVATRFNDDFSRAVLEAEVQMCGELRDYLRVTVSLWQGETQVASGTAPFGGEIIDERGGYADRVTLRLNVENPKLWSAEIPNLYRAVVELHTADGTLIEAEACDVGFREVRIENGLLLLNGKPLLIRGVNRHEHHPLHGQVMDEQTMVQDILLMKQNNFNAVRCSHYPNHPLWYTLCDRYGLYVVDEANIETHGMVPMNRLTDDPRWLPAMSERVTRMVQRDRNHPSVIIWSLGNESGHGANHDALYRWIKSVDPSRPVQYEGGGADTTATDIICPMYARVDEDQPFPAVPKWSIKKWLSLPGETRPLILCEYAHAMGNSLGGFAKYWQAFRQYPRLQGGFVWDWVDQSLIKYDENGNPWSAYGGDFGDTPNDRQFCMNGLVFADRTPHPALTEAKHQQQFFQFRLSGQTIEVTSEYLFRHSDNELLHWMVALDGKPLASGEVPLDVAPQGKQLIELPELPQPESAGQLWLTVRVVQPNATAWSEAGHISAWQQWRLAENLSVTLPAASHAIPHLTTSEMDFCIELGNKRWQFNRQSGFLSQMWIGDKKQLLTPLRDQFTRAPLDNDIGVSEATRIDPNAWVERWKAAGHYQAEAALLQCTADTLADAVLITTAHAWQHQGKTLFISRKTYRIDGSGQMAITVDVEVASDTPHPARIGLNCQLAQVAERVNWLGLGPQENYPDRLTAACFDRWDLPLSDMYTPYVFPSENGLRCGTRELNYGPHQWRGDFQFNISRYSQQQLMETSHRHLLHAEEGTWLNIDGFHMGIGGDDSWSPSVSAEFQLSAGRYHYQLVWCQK

[4] = inhibitors of intracellular T. cruzi replication, confirmation, NIH3T3 host cells, beta-gal luminescence (AID 2044); type: functional, cell-based;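 note: intracellular parasites grown in NIH/3T3 mouse fibroblasts as host cells; luminescent beta-galactosidase reporter signal from transgenic T. cruzi replicating inside host cells; inhibitors lower the luminescence signal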
[5] = target: Type-1 angiotensin II receptor (Homo sapiens, UniProt P30556); assay: AT1 receptor antagonists, dose response, selectivity assay for APJ receptor antagonist project, cell-based, uHTS hits (AID 463214); type: functional;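 note: antagonist potency against angiotensin II stimulated AT1 response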
Sequence of Type-1 angiotensin II receptor (P30556 whole entry): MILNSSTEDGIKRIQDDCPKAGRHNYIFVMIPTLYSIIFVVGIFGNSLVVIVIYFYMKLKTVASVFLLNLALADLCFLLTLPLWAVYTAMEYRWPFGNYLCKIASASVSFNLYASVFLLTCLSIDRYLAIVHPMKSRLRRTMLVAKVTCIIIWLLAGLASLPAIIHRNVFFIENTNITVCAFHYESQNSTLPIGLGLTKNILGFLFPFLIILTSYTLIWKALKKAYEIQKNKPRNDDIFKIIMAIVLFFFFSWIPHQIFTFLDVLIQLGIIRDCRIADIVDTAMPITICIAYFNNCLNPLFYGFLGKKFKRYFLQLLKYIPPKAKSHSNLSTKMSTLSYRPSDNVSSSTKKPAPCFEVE

Streptococcus = assay: Group A Streptococcus viability loss, dose response, counter-screen for streptokinase expression inhibitor project, luminescence, BacTiterGlo (AID 1915); type: functional, organism-based;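 note: potency for reduction of bacterial viability or growth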
INS1 = assay: beta cell apoptosis inhibitors, cytokine rescue, dose response, luminescence, retest (AID 449756); type: functional, cell-based; conditions: Rattus norvegicus;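 note: cell death triggered by IL-1 beta plus TNF-alpha plus IFN-gamma mixture; protective hits raise ATP signal compared with cytokine alone wells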
[6] = growth suppression of beta-catenin-knockout colon cells, dose response, cell-based, HCT116, human colon tumor (AID 1045); type: functional;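 note: HCT116 colon tumor cells with beta catenin knocked out; cells exposed to compound for 60 hours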
[7] = growth suppression of PTEN-null colon cells, dose response, cell-based, HCT116 PTEN knockout (AID 1047); type: functional;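 note: HCT116 colon tumor cells with PTEN knocked out; cells exposed to compound for 60 hours before readout; potency for loss of cell viability measured by luminescence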
[8] = target: Peroxisome proliferator-activated receptor gamma/Nuclear receptor coactivator 3 (Homo sapiens, UniProt P37231); type: functional;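 note: agonist potency for raising coactivator recruitment to the receptor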
Sequence of Peroxisome proliferator-activated receptor gamma/Nuclear receptor coactivator 3 (P37231 whole entry): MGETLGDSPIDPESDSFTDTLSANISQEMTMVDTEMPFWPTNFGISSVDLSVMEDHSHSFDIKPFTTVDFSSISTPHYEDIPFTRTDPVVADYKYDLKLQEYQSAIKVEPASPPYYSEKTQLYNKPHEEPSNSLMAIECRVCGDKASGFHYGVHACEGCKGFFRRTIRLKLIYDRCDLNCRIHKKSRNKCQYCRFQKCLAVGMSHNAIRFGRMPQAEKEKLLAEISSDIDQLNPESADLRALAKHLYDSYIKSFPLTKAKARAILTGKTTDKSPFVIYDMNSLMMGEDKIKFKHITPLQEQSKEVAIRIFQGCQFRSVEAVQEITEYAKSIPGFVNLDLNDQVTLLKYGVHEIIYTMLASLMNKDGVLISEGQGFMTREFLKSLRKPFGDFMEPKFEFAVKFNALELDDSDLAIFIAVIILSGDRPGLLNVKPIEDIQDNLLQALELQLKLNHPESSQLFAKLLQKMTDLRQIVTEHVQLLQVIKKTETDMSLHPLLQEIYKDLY
Sequence of Peroxisome proliferator-activated receptor gamma/Nuclear receptor coactivator 3 (Q9Y6Q9 whole entry, further chain): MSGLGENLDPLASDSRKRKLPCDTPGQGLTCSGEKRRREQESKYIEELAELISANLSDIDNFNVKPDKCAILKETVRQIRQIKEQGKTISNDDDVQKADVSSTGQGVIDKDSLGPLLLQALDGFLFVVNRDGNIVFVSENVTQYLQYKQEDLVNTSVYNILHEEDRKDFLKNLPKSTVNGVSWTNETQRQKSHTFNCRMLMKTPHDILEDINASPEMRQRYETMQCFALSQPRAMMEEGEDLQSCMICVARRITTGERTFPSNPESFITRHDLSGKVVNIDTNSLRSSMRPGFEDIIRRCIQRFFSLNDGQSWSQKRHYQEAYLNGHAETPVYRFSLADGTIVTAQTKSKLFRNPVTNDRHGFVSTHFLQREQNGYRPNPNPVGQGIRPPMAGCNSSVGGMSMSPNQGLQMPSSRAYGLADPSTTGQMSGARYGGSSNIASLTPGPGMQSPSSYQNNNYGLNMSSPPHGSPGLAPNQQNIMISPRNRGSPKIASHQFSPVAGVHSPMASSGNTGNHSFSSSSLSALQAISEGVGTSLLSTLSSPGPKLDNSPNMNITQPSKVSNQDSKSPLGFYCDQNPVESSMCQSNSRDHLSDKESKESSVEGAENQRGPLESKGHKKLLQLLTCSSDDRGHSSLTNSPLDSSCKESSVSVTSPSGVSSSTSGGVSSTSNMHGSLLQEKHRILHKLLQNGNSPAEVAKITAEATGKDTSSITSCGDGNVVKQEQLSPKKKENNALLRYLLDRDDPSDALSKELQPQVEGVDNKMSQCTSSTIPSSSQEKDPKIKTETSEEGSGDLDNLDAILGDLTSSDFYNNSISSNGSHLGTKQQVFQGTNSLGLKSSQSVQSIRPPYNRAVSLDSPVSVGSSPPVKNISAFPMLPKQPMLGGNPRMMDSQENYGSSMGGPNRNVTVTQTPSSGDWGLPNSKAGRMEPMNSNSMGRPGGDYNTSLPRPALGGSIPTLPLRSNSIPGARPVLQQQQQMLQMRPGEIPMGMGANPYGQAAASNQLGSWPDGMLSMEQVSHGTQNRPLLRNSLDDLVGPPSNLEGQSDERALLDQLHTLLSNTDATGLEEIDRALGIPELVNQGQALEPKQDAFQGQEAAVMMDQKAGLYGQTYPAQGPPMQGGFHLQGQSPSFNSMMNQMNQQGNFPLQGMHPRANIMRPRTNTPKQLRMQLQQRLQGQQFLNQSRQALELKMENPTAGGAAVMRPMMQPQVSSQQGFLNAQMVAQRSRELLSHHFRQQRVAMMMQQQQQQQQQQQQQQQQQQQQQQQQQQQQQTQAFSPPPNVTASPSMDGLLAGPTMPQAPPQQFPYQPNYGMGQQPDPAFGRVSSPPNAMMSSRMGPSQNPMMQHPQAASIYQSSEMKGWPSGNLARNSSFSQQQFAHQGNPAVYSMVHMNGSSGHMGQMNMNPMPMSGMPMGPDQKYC

[9] = target: Peroxisome proliferator-activated receptor gamma/Nuclear receptor coactivator 1 (Homo sapiens, UniProt P37231); type: functional;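 note: agonist potency as compounds enhance coactivator SRC-1 recruitment to PPARgamma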
SUMO-activating enzyme = SUMO-activating enzyme (Homo sapiens, UniProt Q9UBT2); assay: SUMOylation inhibitor hit validation, confirmation, SUMOylation inhibitor project, biochemical, AlphaScreen (AID 2018); type: functional
[10] = target: Peroxisome proliferator-activated receptor gamma/Nuclear receptor coactivator 2 (Homo sapiens, UniProt P37231); type: functional;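 note: agonist potency for raising coactivator recruitment to the receptor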
[11] = target: Beta-2 adrenergic receptor (Homo sapiens, UniProt P07550); assay: beta2AR agonists driving receptor internalization, dose response, cell-based, FAP fluorogen, flow cytometry, cherry pick 1 (AID 588763); type: functional
Sequence of Beta-2 adrenergic receptor (P07550 whole entry): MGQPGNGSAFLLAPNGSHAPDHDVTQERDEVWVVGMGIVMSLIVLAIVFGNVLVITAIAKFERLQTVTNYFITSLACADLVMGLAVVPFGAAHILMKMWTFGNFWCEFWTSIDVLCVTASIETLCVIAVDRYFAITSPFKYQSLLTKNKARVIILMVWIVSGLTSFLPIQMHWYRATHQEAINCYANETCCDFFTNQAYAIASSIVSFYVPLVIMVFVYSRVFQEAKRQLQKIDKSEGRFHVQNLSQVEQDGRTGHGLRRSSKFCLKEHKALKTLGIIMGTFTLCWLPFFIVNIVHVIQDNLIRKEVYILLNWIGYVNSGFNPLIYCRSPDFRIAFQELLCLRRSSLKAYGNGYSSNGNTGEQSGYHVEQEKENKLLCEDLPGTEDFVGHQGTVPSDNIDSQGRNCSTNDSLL

HEK293 [12] = assay: HEK cell cytotoxicity by LDH release, dose response, cytotoxicity control for IDE activator project, fluorescence, HEK cells (AID 588440); type: functional, cell-based; conditions: Homo sapiens;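 note: cytotoxicity by LDH release measuring loss of membrane integrity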
HEK293 [13] = assay: optical interference in Abeta FP readout, dose response, artefact control for IDE activator project, biochemical, fluorescence polarization (AID 588442); type: functional, cell-based; conditions: Homo sapiens
Insulin-degrading enzyme [14] = target: T2, Insulin-degrading enzyme (Homo sapiens, UniProt P14735); assay: activators of endogenous IDE in HEK cells, dose response, cell-based, fluorescence polarization (AID 588439); type: functional
T2 sequence (P14735 whole entry): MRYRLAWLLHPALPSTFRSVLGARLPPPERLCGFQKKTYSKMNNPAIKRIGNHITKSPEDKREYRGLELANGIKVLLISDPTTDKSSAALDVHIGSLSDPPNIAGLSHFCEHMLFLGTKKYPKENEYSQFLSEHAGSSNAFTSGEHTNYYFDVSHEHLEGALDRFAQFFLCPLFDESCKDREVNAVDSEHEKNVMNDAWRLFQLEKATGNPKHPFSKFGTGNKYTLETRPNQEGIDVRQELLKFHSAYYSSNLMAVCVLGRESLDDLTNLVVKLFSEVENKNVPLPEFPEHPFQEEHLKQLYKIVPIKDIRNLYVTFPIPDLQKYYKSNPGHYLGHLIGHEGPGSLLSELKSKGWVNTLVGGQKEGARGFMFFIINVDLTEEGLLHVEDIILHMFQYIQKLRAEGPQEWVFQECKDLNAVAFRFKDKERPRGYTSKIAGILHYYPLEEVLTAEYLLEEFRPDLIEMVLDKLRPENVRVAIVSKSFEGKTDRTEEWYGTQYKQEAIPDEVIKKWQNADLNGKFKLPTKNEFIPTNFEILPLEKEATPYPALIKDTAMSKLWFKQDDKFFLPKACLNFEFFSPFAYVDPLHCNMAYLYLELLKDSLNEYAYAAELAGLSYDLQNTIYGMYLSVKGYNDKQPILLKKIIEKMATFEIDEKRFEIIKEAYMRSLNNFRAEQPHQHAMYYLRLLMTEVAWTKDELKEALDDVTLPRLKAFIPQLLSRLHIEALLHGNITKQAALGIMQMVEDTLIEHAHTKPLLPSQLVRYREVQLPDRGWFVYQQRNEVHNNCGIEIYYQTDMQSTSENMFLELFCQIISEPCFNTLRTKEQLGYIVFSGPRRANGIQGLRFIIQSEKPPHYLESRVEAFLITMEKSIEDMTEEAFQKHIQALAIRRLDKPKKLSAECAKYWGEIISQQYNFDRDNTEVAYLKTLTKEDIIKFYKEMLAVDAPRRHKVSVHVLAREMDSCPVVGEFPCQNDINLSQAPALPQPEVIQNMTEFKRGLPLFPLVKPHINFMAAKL

Insulin-degrading enzyme [15] = target: T2, Insulin-degrading enzyme; assay: activators of recombinant IDE enzyme, dose response, counter-screen for IDE activator project, biochemical, fluorescence polarization (AID 588681)
cells [16] = type: functional, cell-based
[17] = target: T3, Microphthalmia-associated transcription factor (Homo sapiens, UniProt O75030); assay: TRPM1 promoter luciferase signal decrease, dose response, MITF inhibitor project, cell-based, SK-MEL-5, cherry-picked, set 3 (AID 493073); type: functional
T3 sequence (O75030 whole entry): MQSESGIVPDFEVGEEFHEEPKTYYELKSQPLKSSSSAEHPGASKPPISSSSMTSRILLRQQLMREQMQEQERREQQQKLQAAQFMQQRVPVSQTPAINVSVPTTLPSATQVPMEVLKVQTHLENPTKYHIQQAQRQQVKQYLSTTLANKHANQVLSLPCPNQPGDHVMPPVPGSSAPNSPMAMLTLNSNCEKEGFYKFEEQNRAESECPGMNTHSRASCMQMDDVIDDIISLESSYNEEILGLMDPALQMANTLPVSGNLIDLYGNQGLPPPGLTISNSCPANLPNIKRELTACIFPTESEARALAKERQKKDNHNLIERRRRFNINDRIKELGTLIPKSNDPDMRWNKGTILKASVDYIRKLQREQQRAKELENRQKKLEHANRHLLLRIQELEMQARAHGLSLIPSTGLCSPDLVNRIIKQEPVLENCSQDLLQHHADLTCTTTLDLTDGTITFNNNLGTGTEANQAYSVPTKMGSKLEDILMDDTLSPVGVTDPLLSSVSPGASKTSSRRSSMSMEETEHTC

cells [18] = type: functional, cell-based; remark: listed apart in the source
[19] = target: Voltage-gated inwardly rectifying potassium channel KCNH2 (Homo sapiens, UniProt Q12809); conditions: Potency;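 note: confirmatory quantitative high-throughput screen measuring inhibition of hERG channel activity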
Sequence of Voltage-gated inwardly rectifying potassium channel KCNH2 (Q12809 whole entry): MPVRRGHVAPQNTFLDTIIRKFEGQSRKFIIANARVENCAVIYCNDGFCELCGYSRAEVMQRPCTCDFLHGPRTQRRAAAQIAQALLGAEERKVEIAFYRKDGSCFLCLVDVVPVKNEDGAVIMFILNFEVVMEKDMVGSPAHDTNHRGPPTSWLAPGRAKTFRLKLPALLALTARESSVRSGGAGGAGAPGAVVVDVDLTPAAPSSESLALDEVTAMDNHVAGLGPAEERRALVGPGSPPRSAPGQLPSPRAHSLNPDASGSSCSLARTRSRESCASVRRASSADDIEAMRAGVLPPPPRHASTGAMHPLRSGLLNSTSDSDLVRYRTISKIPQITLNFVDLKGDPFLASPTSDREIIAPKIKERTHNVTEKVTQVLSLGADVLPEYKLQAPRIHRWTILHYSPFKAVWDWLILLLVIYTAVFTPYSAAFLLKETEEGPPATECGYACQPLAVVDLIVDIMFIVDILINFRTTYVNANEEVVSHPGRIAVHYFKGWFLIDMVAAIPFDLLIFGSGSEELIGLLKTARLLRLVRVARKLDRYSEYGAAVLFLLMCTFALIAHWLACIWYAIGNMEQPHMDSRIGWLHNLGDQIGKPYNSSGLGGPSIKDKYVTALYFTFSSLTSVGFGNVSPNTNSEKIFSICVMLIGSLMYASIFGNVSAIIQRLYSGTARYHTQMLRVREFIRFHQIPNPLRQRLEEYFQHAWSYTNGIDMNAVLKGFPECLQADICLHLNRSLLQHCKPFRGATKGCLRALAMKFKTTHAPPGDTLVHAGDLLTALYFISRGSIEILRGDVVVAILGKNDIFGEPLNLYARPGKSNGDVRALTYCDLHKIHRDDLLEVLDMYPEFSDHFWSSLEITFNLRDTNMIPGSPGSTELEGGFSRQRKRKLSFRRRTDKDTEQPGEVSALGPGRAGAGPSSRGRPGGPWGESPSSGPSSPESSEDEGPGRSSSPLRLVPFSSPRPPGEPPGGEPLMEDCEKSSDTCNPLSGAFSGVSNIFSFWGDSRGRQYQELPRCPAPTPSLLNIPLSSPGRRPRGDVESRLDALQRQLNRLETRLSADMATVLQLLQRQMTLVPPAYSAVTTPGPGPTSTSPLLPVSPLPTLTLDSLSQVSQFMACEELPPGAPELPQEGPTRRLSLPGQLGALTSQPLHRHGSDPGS

CCCN(CCC)c1nc(-c2ccccn2)nc2ccccc12
AC50 [1]: 13.3 µM (active)
EC50 [2]: 1.76 µM (active)
EC50 [3]: 1.02 µM (active)
EC50 (Beta-galactosidase): > 40 µM (inactive)
EC50 [4]: 0.374 µM (active)
IC50 [5]: 23.9 µM (not active)
EC50 (Streptococcus): 1.85 µM (active)
AC50 (INS1): 1.77 µM (active)

O=C(Nc1ccc2oc(-c3ccc4ccccc4c3)nc2c1)c1ccc2c(c1)OCCO2
EC50 [6]: 18.4 µM (active)
EC50 [7]: 12.4 µM (active)
EC50 [8]: 37.1 µM (not active)
EC50 [9]: 27.1 µM (not active)
IC50 (SUMO-activating enzyme): 38.9 µM (active)
EC50 [10]: 22.1 µM (not active)
EC50 [11]: 5.58 µM (active)

Cc1ccc(Cn2nc(C)c(C(=O)N3CCN(S(=O)(=O)/C=C/c4ccccc4)CC3)c2C)cc1
IC50 (HEK293 [12]): > 89.2 µM (inactive)
EC50 (HEK293 [13]): > 54.7 µM (inactive)
EC50 (Insulin-degrading enzyme [14]): > 54.7 µM (inactive)
EC50 (Insulin-degrading enzyme [15]): > 54.7 µM (inactive)

CC1CCC(NC(=O)CCS(=O)(=O)c2ccc3c(c2)CCN3C(=O)C2CC2)CC1 (centres undefined)
EC50 [11]: 0.522 µM (active)

COc1cc(C(=O)N/N=C(\c2ccccc2)c2ccccn2)cc(OC)c1OC
EC50 [2]: 0.75 µM (active)
EC50 (Beta-galactosidase): > 40 µM (inactive)
EC50 [4]: 0.473 µM (active)
EC50 (cells [16]): > 350 µM (not active)
AC50 [17]: 13.8 µM (active)
EC50 (cells [18]): 10.3 µM (active)
IC50 [5]: > 40 µM (not active)
AC50 (INS1): 0.499 µM (active)

CNCCCC1c2ccccc2C=Cc2ccccc21 [PROTRIPTYLINE HYDROCHLORIDE]
AC50 [19]: 31.6 µM (inconclusive)
